Legend:
IL-1β mRNA [1] = assay: IL-1β mRNA expression in LPS-stimulated human articular chondrocytes (real-time PCR); type: cell-based; settings: LPS 2 μg/ml, 4 hours
Experimental: (§1) Human articular chondrocytes were cultured in six well culture Petri dishes at a density of 2.5×10^5 cells/well, in a specific chondrocyte growth medium supplemented with 1% antibiotic—antimycotic mixture, at 37° C. in 5% CO2 humidified incubator. The medium was renewed every 2 days. […] Finally, the cells and medium underwent molecular evaluation 4 hours after the treatments.
(§2) Total RNA was isolated from human chondrocytes for reverse-PCR real time evaluation of IL-1beta, COX2, MMP1, MMP-3, MMP9, MMP13, NF-kB (p50), NF-kB (p65), IL-13 and 5-LOX mRNA (Real Time PCR system, mod 7500, Applied Biosystems, Carlsbad, Calif.) using Trizol Reagent Kit (Life Technologies, Monza, Italy). The first strand of cDNA was synthesized from 5.0 μg total RNA using a high capacity cDNA Archive kit (Applied Biosystems, Carlsbad, Calif.). β-actin mRNA was used as an endogenous control to allow the relative quantification. […] The amplified PCR products were quantified by measuring the calculated cycle thresholds (CT) of IL-1beta, COX2, MMP1, MMP-3, MMP9, MMP13, NF-kB (p50), NF-kB (p65), IL-13 and 5-LOX and β-Actin mRNA. The amounts of specific mRNA in samples were calculated using the 2^ΔΔCT method. The mean value of normal chondrocytes target levels became the calibrator and the results are expressed as the n-fold difference relative to normal controls (relative expression levels). […]

5-LOX mRNA = 5-LOX mRNA expression in LPS-stimulated human articular chondrocytes (real-time PCR); type: cell-based; settings: LPS 2 μg/ml, 4 hours; curcumin 10 μg/ml
Experimental: as §1, §2

IL-13 mRNA = IL-13 mRNA expression in LPS-stimulated human articular chondrocytes (real-time PCR); type: cell-based; settings: LPS 2 μg/ml, 4 hours; curcumin alone 5 or 10 μg/ml
Experimental: as §1, §2

MMP-3 mRNA = MMP-3 mRNA expression in LPS-stimulated human articular chondrocytes (real-time PCR); type: cell-based; settings: LPS 2 μg/ml, 4 hours
Experimental: as §1, §2

COX-2 mRNA = type: cell-based, human
Experimental: as §1, §2

NF-κB p65 mRNA = assay: NF-κB (p65) mRNA expression in LPS-stimulated human articular chondrocytes (real-time PCR); type: cell-based; settings: LPS 2 μg/ml, 4 hours
Experimental: as §1, §2

MMP-1 mRNA = MMP-1 mRNA expression in LPS-stimulated human articular chondrocytes (real-time PCR); type: cell-based; settings: LPS 2 μg/ml, 4 hours
Experimental: as §1, §2

IL-1β mRNA [2] = assay: Median effect / combination index analysis (Chou and Talalay) of reduction of IL-1β mRNA levels in chondrocytes; type: cell-based; settings: Homo sapiens, Chondrocyte, read-out: IC50 (Dm) for reduction of IL-1β mRNA levels
Experimental: We then plotted the dose-response curve (FIG. 21) as log (fa/fu) with respect to log (D) to generate the Median Effect Plot (FIG. 22).
The CI was calculated as:

COc1cc(/C=C/C(=O)CC(=O)/C=C/c2ccc(O)c(OC)c2)ccc1O [curcumin]
IL-1β mRNA expression (IL-1β mRNA [1]; curcumin 5 μg/ml): significantly blunted | IL-1β mRNA expression (IL-1β mRNA [1]; curcumin 10 μg/ml alone): further decreased | 5-LOX mRNA expression (5-LOX mRNA): blunted | IL-13 mRNA expression (IL-13 mRNA): significantly increased in a dose dependent manner | MMP-3 mRNA expression (MMP-3 mRNA; curcumin 5 μg/ml alone): significantly reduced | MMP-3 mRNA expression (MMP-3 mRNA; curcumin 10 μg/ml): additional decrease in a concentration-dependent manner | COX-2 mRNA expression (COX-2 mRNA): significantly reduced | NF-κB p65 mRNA expression (NF-κB p65 mRNA; curcumin 5 μg/ml): failed to result in any change | NF-κB p65 mRNA expression (NF-κB p65 mRNA; curcumin 10 μg/ml alone): more pronounced decrease | MMP-1 mRNA expression (MMP-1 mRNA; curcumin 5 μg/ml alone): significantly reduced | MMP-1 mRNA expression (MMP-1 mRNA; curcumin 10 μg/ml): additional decrease in a concentration-dependent manner | IC50 (IL-1β mRNA [2]): 14.3 µM

Source: patent US20180064681A1, “THERAPEUTIC COMBINATIONS OF CURCUMINOIDS AND FLAVONOIDS” (Primus Pharmaceuticals, Inc., priority 2015, published 2018)
